Results taken from ChEMBL document CHEMBL4257573, “Synthesis, modification, and cytotoxic evaluation of 2,3-secotriterpenic β-ketoesters” (Bioorg Med Chem Lett, 2018).

How the values were obtained:
HEp-2 = assay: Cytotoxicity against human Hep2 cells assessed as reduction in cell viability after 72 hrs by MTT assay; format: functional, cell-based; conditions: HEp-2, 72 h
HCT-116 [1] = assay: Cytotoxicity against human HCT116 cells assessed as reduction in cell viability after 72 hrs by MTT assay; format: functional, cell-based; conditions: for IC50: HCT-116, 72 h
[2] = Cytotoxicity against human MS cells assessed as reduction in cell viability after 72 hrs by MTT assay; format: functional, cell-based
RD = assay: Cytotoxicity against human RD cells assessed as reduction in cell viability after 72 hrs by MTT assay; format: functional, cell-based
A549 = assay: Cytotoxicity against human A549 cells assessed as reduction in cell viability after 72 hrs by MTT assay; format: functional, cell-based; conditions: A549, 72 h
MCF7 = assay: Cytotoxicity against human MCF7 cells assessed as reduction in cell viability after 72 hrs by MTT assay; format: functional, cell-based; conditions: MCF7, 72 h
HEK293 = assay: Cytotoxicity against HEK293 cells assessed as reduction in cell viability after 72 hrs by MTT assay; format: cell-based; conditions: Homo sapiens, HEK293, 72 h
[3] = Selectivity index, ratio of IC50 for HEK293 cells to IC50 for human Hep2 cells; format: toxicity; conditions: HEK293 cells versus Hep2 cells, read-out: Ratio IC50
[4] = Selectivity index, ratio of IC50 for HEK293 cells to IC50 for human MS cells; format: toxicity; conditions: HEK293 cells versus MS cells, read-out: Ratio IC50
[5] = Selectivity index, ratio of IC50 for HEK293 cells to IC50 for human MCF7 cells; format: toxicity; conditions: HEK293 cells versus MCF7 cells, read-out: Ratio IC50
HCT-116 [6] = assay: Cytotoxicity against human HCT116 cells assessed as reduction in cell viability at 2 uM by MTT assay; format: functional, cell-based; conditions: TDE = time-dependent effect

| Structure (SMILES) | IC50 (HEp-2) | IC50 (HCT-116 [1]) | IC50 [2] | IC50 (RD) | IC50 (A549) | IC50 (MCF7) | IC50 (HEK293) | selectivity ratio [3] | selectivity ratio [4] | selectivity ratio [5] | Activity (HCT-116 [1]) | Activity (HCT-116 [6]) |
| --- | --- | --- | --- | --- | --- | --- | --- | --- | --- | --- | --- | --- |
| CC1(C)CC[C@]23CC[C@]4(C)[C@H](CC[C@@H]5[C@@](C)(CC#N)[C@H](C(C)(C)C(=O)CO)CC[C@]54C)[C@H]2[C@H]1OC3 | > 100 µM | > 100 µM | > 100 µM | > 100 µM | > 100 µM | > 100 µM | – | – | – | – | – | – |
| CC1(C)CC[C@]23CC[C@]4(C)[C@H](CC[C@@H]5[C@@](C)(CC#N)[C@H](C(C)(C)C(=O)COC(=O)CC(=O)CC(=O)O)CC[C@]54C)[C@H]2[C@H]1OC3 | > 100 µM | > 100 µM | 87.5 µM | 50.1 µM | 69.5 µM | > 100 µM | – | – | – | – | – | – |
| CC1(C)CC[C@]23CC[C@]4(C)[C@H](CC[C@@H]5[C@@](C)(CC#N)[C@H](C(C)(C)C(=O)COC(=O)/C=C/c6ccccc6)CC[C@]54C)[C@H]2[C@H]1OC3 | > 100 µM | 28.5 µM | > 100 µM | 44.3 µM | > 100 µM | > 100 µM | – | – | – | – | – | – |
| CC1(C)CC[C@]23CC[C@]4(C)[C@H](CC[C@@H]5[C@@](C)(CC#N)[C@H](C(C)(C)C(=O)COC=O)CC[C@]54C)[C@H]2[C@H]1OC3 | > 100 µM | > 100 µM | > 100 µM | > 100 µM | > 100 µM | > 100 µM | – | – | – | – | – | – |
| CC1(C)CC[C@]23CC[C@]4(C)[C@H](CC[C@@H]5[C@@](C)(CC#N)[C@H](C(C)(C)C(=O)COC(=O)CCC(=O)O)CC[C@]54C)[C@H]2[C@H]1OC3 | > 100 µM | > 100 µM | > 100 µM | > 100 µM | > 100 µM | > 100 µM | – | – | – | – | – | – |
| C=C(C=O)[C@@H]1CC[C@]2(C(=O)OC)CC[C@]3(C)[C@H](CC[C@@H]4[C@@](C)(CC#N)[C@H](C(C)(C)C(=O)COC(=O)c5ccccc5OC(C)=O)CC[C@]43C)[C@@H]12 | 36.2 µM | 4.91 µM | 12.8 µM | 4.81 µM | 22.8 µM | > 100 µM | 108 µM | 1.08 to 22.5 | 1.08 to 22.5 | 1.08 to 22.5 | – | – |
| COc1cccc2c1C(=O)c1c(O)c3c(c(O)c1C2=O)C[C@@](O)(C(=O)CO)C[C@@H]3O[C@H]1C[C@H](N)[C@H](O)[C@H](C)O1 [DOXORUBICIN] | 1.78 µM | – | 1.29 µM | 1.27 µM | – | – | 0.02 µM | – | – | – | Dose-dependent effect | Tde |
| CC1(C)CC[C@]23CC[C@]4(C)[C@H](CC[C@@H]5[C@@](C)(CC#N)[C@H](C(C)(C)C(=O)[C@@H](Cl)Br)CC[C@]54C)[C@H]2[C@H]1OC3 | > 100 µM | 13.2 µM | 24.7 µM | 11.3 µM | 35.2 µM | 10.8 µM | – | – | – | – | – | – |
| CC1(C)CC[C@]23CC[C@]4(C)[C@H](CC[C@@H]5[C@@](C)(CC#N)[C@H](C(C)(C)C(=O)COC(=O)CCCCCCCCC(=O)O)CC[C@]54C)[C@H]2[C@H]1OC3 | > 100 µM | > 100 µM | > 100 µM | > 100 µM | > 100 µM | > 100 µM | – | – | – | – | – | – |
| CC1(C)CC[C@]23CC[C@]4(C)[C@H](CC[C@@H]5[C@@](C)(CC#N)[C@H](C(C)(C)C(=O)C(Cl)Cl)CC[C@]54C)[C@H]2[C@H]1OC3 | > 100 µM | 13.2 µM | 24.7 µM | 11.3 µM | 35.2 µM | 10.8 µM | – | – | – | – | – | – |
| CC(=O)OCC(=O)C(C)(C)[C@@H]1CC[C@]2(C)[C@H](CC[C@@H]3[C@H]4[C@H]5OC[C@@]4(CCC5(C)C)CC[C@]32C)[C@@]1(C)CC#N | > 100 µM | > 100 µM | > 100 µM | > 100 µM | > 100 µM | > 100 µM | – | – | – | – | – | – |
| C=C(C=O)[C@@H]1CC[C@]2(C(=O)OC)CC[C@]3(C)[C@H](CC[C@@H]4[C@@](C)(CC#N)[C@H](C(C)(C)C(=O)COC(=O)c5cccnc5)CC[C@]43C)[C@@H]12 | 29.5 µM | 7.03 µM | 8.27 µM | 8.98 µM | 40.3 µM | 35 µM | 59.4 µM | 1.47 to 8.45 | 1.47 to 8.45 | 1.47 to 8.45 | – | – |
| C=C(C=O)[C@@H]1CC[C@]2(C(=O)OC)CC[C@]3(C)[C@H](CC[C@@H]4[C@]5(C)[C@@H](CC[C@]43C)C(C)(C)[C@@](O)(CO)[C@H]5C#N)[C@@H]12 | 23.7 µM | 9.32 µM | 12.3 µM | 5.83 µM | 28.8 µM | 8.39 µM | 118 µM | 4.08 to 20.2 | 4.08 to 20.2 | 4.08 to 20.2 | – | – |
| CC1(C)CC[C@]23CC[C@]4(C)[C@H](CC[C@@H]5[C@@](C)(CC#N)[C@H](C(C)(C)C(O)CO)CC[C@]54C)[C@H]2[C@H]1OC3 (stereo partly drawn) | > 100 µM | 81.9 µM | 38 µM | > 100 µM | > 100 µM | 59.8 µM | – | – | – | – | – | – |
| C=C(CO)[C@@H]1CC[C@]2(C(=O)OC)CC[C@]3(C)[C@H](CC[C@@H]4[C@@](C)(CC#N)[C@H](C(C)(C)C(O)CO)CC[C@]43C)[C@@H]12 (stereo partly drawn) | > 100 µM | > 100 µM | > 100 µM | 72.4 µM | > 100 µM | > 100 µM | – | – | – | – | – | – |
| CC1(C)CC[C@]23CC[C@]4(C)[C@H](CC[C@@H]5[C@@](C)(CC#N)[C@H](C(C)(C)C(=O)COC(=O)c6cccnc6)CC[C@]54C)[C@H]2[C@H]1OC3 | > 100 µM | > 100 µM | > 100 µM | > 100 µM | > 100 µM | > 100 µM | – | – | – | – | – | – |
| CC1(C)CC[C@]23CC[C@]4(C)[C@H](CC[C@@H]5[C@]6(C)[C@@H](CC[C@]54C)C(C)(C)[C@@](O)(CO)[C@H]6C#N)[C@H]2[C@H]1OC3 | > 100 µM | > 100 µM | > 100 µM | > 100 µM | > 100 µM | > 100 µM | – | – | – | – | – | – |
| C=C(C=O)[C@@H]1CC[C@]2(C(=O)OC)CC[C@]3(C)[C@H](CC[C@@H]4[C@@](C)(CC#N)[C@H](C(C)(C)C(=O)COC=O)CC[C@]43C)[C@@H]12 | 78.9 µM | 79.8 µM | 49.1 µM | 49.4 µM | > 100 µM | 30 µM | – | – | – | – | – | – |
| CC(C)(CC(=O)OCC(=O)C(C)(C)[C@@H]1CC[C@]2(C)[C@H](CC[C@@H]3[C@H]4[C@H]5OC[C@@]4(CCC5(C)C)CC[C@]32C)[C@@]1(C)CC#N)C(=O)O | > 100 µM | > 100 µM | > 100 µM | > 100 µM | > 100 µM | > 100 µM | – | – | – | – | – | – |
| C=C(C=O)[C@@H]1CC[C@]2(C(=O)OC)CC[C@]3(C)[C@H](CC[C@@H]4[C@@](C)(CC#N)[C@H](C(C)(C)C(=O)COC(=O)/C=C/c5ccccc5)CC[C@]43C)[C@@H]12 | 84.8 µM | 13.2 µM | 22 µM | 3.65 µM | > 100 µM | 8.54 µM | 184 µM | 1.84 to 50.3 | 1.84 to 50.3 | 1.84 to 50.3 | – | – |
| C=C(CO)[C@@H]1CC[C@]2(C(=O)OC)CC[C@]3(C)[C@H](CC[C@@H]4[C@@](C)(CC#N)[C@H](C(C)(C)C(=O)COC(C)=O)CC[C@]43C)[C@@H]12 | 81.2 µM | 43.7 µM | 24 µM | 33.4 µM | 50.7 µM | 10.3 µM | – | – | – | – | – | – |
| CC(=O)Oc1ccccc1C(=O)OCC(=O)C(C)(C)[C@@H]1CC[C@]2(C)[C@H](CC[C@@H]3[C@H]4[C@H]5OC[C@@]4(CCC5(C)C)CC[C@]32C)[C@@]1(C)CC#N | > 100 µM | > 100 µM | > 100 µM | > 100 µM | > 100 µM | > 100 µM | – | – | – | – | – | – |
